In patent publication US5475010A, “7'-amino-naphthazarin antibiotic derivatives” (Gruppo Lepetit S.p.A., priority 1991, dated 1995):
Converted amounts (≈) assume the structure as drawn. Where a name gives a salt, the structure may show the parent alone. Read-outs that look alike come from different tables or passages of the source.

Assays:
Assay type in all cases: cell-based
[1] = test system: Staphilococcus aureus Tour; assay: MIC by broth microdilution, Staphylococcus aureus Tour; conditions: Iso-Sensitest broth, 37° C., 20-24 h, air
[2] = test system: Bacteroides fragiles ATCC 9689; assay: MIC by broth microdilution, Bacteroides fragilis; conditions: ATCC9689, Table 2, internal code 1010, approx. 10^4 cfu/ml, Wilkins-Chalgren broth, 37° C., 48 h, N2-CO2-H2 (80:10:10)
[3] = test system: Streptococcus pneumonieae UC 41; assay: MIC by broth microdilution, Streptococcus pneumoniae; conditions: UC41
[4] = test system: Staphilococcus epidermidis ATCC 12228; assay: MIC by broth microdilution, Staphylococcus epidermidis; conditions: ATCC12228
[5] = test system: Pseudomonas aeruginosa ATCC 10145; assay: MIC by broth microdilution, Pseudomonas aeruginosa; conditions: ATCC10145, Table 2, internal code 4, approx. 10^4 cfu/ml, Iso-Sensitest broth, 37° C., 20-24 h, air
[6] = test system: Proteus vulgaris X19H ATCC 881; assay: MIC by broth microdilution, Proteus vulgaris
[7] = test system: Staphilococcus haemolyticus (clin. isolate); assay: MIC by broth microdilution, Staphylococcus haemolyticus
[8] = test system: Streptococcus pyogenes C 203; assay: MIC by broth microdilution, Streptococcus pyogenes; conditions: C203
[9] = test system: Escherichia coli SKF 12140; assay: MIC by broth microdilution, Escherichia coli; conditions: SKF12140
[10] = test system: Clostridium perfringens ISS 30543; assay: microbe, parasite or virus in culture; conditions: ISS30543, 48 h
[11] = test system: Tricophyton mentagrophytes; assay: MIC by broth microdilution, Trichophyton mentagrophytes; conditions: 72 h
[12] = test system: Enterococcus faecalis ATCC 7080; assay: MIC by broth microdilution, Enterococcus faecalis; conditions: ATCC7080
[13] = test system: Propionibacterium acnes ATCC 6919; assay: MIC by broth microdilution, Propionibacterium acnes; conditions: Cutibacterium acnes
[14] = Table 2, internal code 165, + 30% bovine serum
[15] = Table 2, internal code 165, inoculum 10^6 cfu/ml
[16] = Table 2, internal code 165, inoculum approx. 10^4 cfu/ml
[17] = ATCC6919, Table 2, internal code 1014, approx. 10^4 cfu/ml, Wilkins-Chalgren broth, 37° C., 48 h, N2-CO2-H2 (80:10:10), read-out: MIC

`COC(=O)c1cc2cc3c(c(O)c2c(=O)o1)OC1(Cc2c(O)c4c(c(O)c2O1)C(=O)C(NCC#N)=CC4=O)CC3O` (centres unmarked) [Example 16, 7'-(cyanomethylen)amino purpuromycin] gave an MIC [1, 14] of 2 µg/mL, an MIC [1, 15] of 0.13 µg/mL (≈ 0.231 µM) and an MIC [1, 16] of 0.13 µg/mL (≈ 0.231 µM). The MIC [2] was 0.5 µg/mL (≈ 0.889 µM), the MIC [3] was 0.03 µg/mL (≈ 0.0533 µM) and the MIC [4] was 0.13 µg/mL (≈ 0.231 µM). The MIC [5] was over 128 µg/mL, the MIC ([6]; ATCC881) was over 128 µg/mL and the MIC [7] was 0.13 µg/mL (≈ 0.231 µM). It also gave an MIC [8] of 0.13 µg/mL (≈ 0.231 µM), an MIC [9] of over 128 µg/mL and an MIC [10] of 0.13 µg/mL (≈ 0.231 µM). For the same compound, the MIC [11] was 128 µg/mL (≈ 228 µM), the MIC [12] was 0.13 µg/mL (≈ 0.231 µM) and the MIC ([13]; ATCC6919, 48 h) was 0.016 µg/mL (≈ 0.0284 µM).
Compound `COC(=O)c1cc2cc3c(c(O)c2c(=O)o1)OC1(Cc2c(O)c4c(c(O)c2O1)C(=O)C(NCC(F)(F)F)=CC4=O)CC3O` (centres unmarked) [Example 23, 7'-(2,2,2-trifluoroethylen)-amino purpuromycin] has an MIC [1, 14] of 2 µg/mL, an MIC [1, 15] of 0.03 µg/mL (≈ 0.0496 µM) and an MIC [1, 16] of 0.016 µg/mL (≈ 0.0264 µM). It also gave an MIC [2] of 0.06 µg/mL (≈ 0.0991 µM), an MIC [3] of 0.06 µg/mL (≈ 0.0991 µM) and an MIC [4] of 0.016 µg/mL (≈ 0.0264 µM). The MIC [5] was over 128 µg/mL, the MIC ([6]; ATCC881) was over 128 µg/mL and the MIC [7] was 0.016 µg/mL (≈ 0.0264 µM). The MIC [8] was 0.13 µg/mL (≈ 0.215 µM), the MIC [9] was over 128 µg/mL and the MIC [10] was 0.03 µg/mL (≈ 0.0496 µM). The MIC [11] was over 128 µg/mL, the MIC [12] was 0.03 µg/mL (≈ 0.0496 µM) and the MIC [13, 17] was 0.008 µg/mL (≈ 0.0132 µM).
In the case of `COC(=O)c1cc2cc3c(c(O)c2c(=O)o1)OC1(Cc2c(O)c4c(c(O)c2O1)C(=O)C(NCCO)=CC4=O)CC3O` (centres unmarked) [Example 21, 7'-(2-hydroxyethylen)-amino purpuromycin], the MIC [1, 14] is reported as 1 µg/mL, the MIC [1, 15] is reported as 0.13 µg/mL (≈ 0.229 µM) and the MIC [1, 16] is reported as 0.06 µg/mL (≈ 0.106 µM). It also gave an MIC [2] of 0.13 µg/mL (≈ 0.229 µM), an MIC [3] of 0.016 µg/mL (≈ 0.0282 µM) and an MIC [4] of 0.06 µg/mL (≈ 0.106 µM). The MIC [5] was at least 128 µg/mL, the MIC ([6]; ATCC881) was at least 128 µg/mL and the MIC [7] was 0.13 µg/mL (≈ 0.229 µM). The MIC [8] was 0.03 µg/mL (≈ 0.0529 µM), the MIC [9] was at least 128 µg/mL and the MIC [11] was at least 128 µg/mL. The MIC [12] was 0.06 µg/mL (≈ 0.106 µM) and the MIC [13, 17] was 0.004 µg/mL (≈ 0.00705 µM).
In the case of `COC(=O)c1cc2cc3c(c(O)c2c(=O)o1)OC1(Cc2c(O)c4c(c(O)c2O1)C(=O)C(NCCN)=CC4=O)CC3O` (centres unmarked) [Example 19, 7'-(2-aminoethylen)-amino purpuromycin trifluoroacetate], the MIC [1, 14] is reported as 8 µg/mL, the MIC [1, 15] is reported as 1 µg/mL and the MIC [1, 16] is reported as 1 µg/mL. For the same compound, the MIC [2] was over 128 µg/mL, the MIC [3] was 1 µg/mL and the MIC [4] was 1 µg/mL. It also gave an MIC [5] of over 128 µg/mL, an MIC ([6]; ATCC881, Table 2, internal code 79, approx. 10^4 cfu/ml, Iso-Sensitest broth, 37° C., 20-24 h, air, read-out: MIC) of over 128 µg/mL and an MIC [7] of 1 µg/mL. The MIC [8] was 2 µg/mL, the MIC [9] was over 128 µg/mL and the MIC [10] was 0.5 µg/mL. The MIC [11] was over 128 µg/mL, the MIC [12] was 2 µg/mL and the MIC ([13]; ATCC6919, 48 h) was 0.5 µg/mL.
`COC(=O)c1cc2cc3c(c(O)c2c(=O)o1)OC1(Cc2c(O)c4c(c(O)c2O1)C(=O)C(N)=CC4=O)CC3O` (centres unmarked) [Example 25, 7'-Aminopurpuromycin] was tested, and the MIC [1, 14] was 1 µg/mL, the MIC [1, 15] was 0.06 µg/mL (≈ 0.115 µM) and the MIC [1, 16] was 0.03 µg/mL (≈ 0.0573 µM). It also gave an MIC [2] of 0.06 µg/mL (≈ 0.115 µM), an MIC [3] of 0.016 µg/mL (≈ 0.0306 µM) and an MIC [4] of 0.03 µg/mL (≈ 0.0573 µM). It also gave an MIC [5] of over 128 µg/mL, an MIC ([6]; ATCC881) of over 128 µg/mL and an MIC [7] of 0.06 µg/mL (≈ 0.115 µM). For the same compound, the MIC [8] was 0.03 µg/mL (≈ 0.0573 µM), the MIC [9] was over 128 µg/mL and the MIC [12] was 0.06 µg/mL (≈ 0.115 µM). The MIC [13, 17] was 0.008 µg/mL (≈ 0.0153 µM).
Work on `CNC1=CC(=O)c2c(O)c3c(c(O)c2C1=O)OC1(CCc2cc4cc(C(=O)OC)oc(=O)c4c(O)c2O1)C3` (centres unmarked) [Example 32, 7'-methylamino γ-rubromycin] yielded an MIC [1, 14] of 0.25 µg/mL, an MIC [1, 15] of 0.03 µg/mL (≈ 0.0575 µM) and an MIC [1, 16] of 0.016 µg/mL (≈ 0.0307 µM). For the same compound, the MIC [2] was 0.06 µg/mL (≈ 0.115 µM), the MIC [3] was 0.016 µg/mL (≈ 0.0307 µM) and the MIC [4] was 0.016 µg/mL (≈ 0.0307 µM). It also gave an MIC [5] of over 128 µg/mL, an MIC ([6]; ATCC881) of over 128 µg/mL and an MIC [7] of 0.016 µg/mL (≈ 0.0307 µM). For the same compound, the MIC [8] was 0.03 µg/mL (≈ 0.0575 µM), the MIC [9] was over 128 µg/mL and the MIC [10] was 0.016 µg/mL (≈ 0.0307 µM). It also gave an MIC [11] of over 128 µg/mL, an MIC [12] of 0.03 µg/mL (≈ 0.0575 µM) and an MIC [13, 17] of 0.004 µg/mL (≈ 0.00767 µM).
`CCNC1=CC(=O)c2c(O)c3c(c(O)c2C1=O)OC1(C3)CC(O)c2cc3cc(C(=O)OC)oc(=O)c3c(O)c2O1` (centres unmarked) [Example 10, 7'-ethylamino purpuromycin] was tested, and the MIC ([1]; Table 2, internal code 165, + 30% bovine serum, read-out: MIC) was 1 µg/mL, the MIC [1, 15] was 0.06 µg/mL (≈ 0.109 µM) and the MIC [1, 16] was 0.06 µg/mL (≈ 0.109 µM). The MIC [2] was 0.06 µg/mL (≈ 0.109 µM), the MIC [3] was 0.06 µg/mL (≈ 0.109 µM) and the MIC [4] was 0.06 µg/mL (≈ 0.109 µM). The MIC [5] was over 128 µg/mL, the MIC ([6]; ATCC881) was over 128 µg/mL and the MIC [7] was 0.06 µg/mL (≈ 0.109 µM). The MIC [8] was 0.06 µg/mL (≈ 0.109 µM), the MIC [9] was over 128 µg/mL and the MIC ([11]; Table 2, internal code 634, 1% (v/v) suspension of mycelia and conidia, YM broth, 30° C., air, read-out: MIC) was at most 0.13 µg/mL. For the same compound, the MIC [12] was 0.06 µg/mL (≈ 0.109 µM) and the MIC ([13]; ATCC6919, 48 h) was 0.06 µg/mL (≈ 0.109 µM).
